From US20200131156A1, “ARYLSULFONYLPYROLECARBOXAMIDE DERIVATIVES AS Kv3 POTASSIUM CHANNEL ACTIVATORS” (H. Lundbeck A/S, priority 2018, published 2020)

Target: T1, human Kv3.1b (Homo sapiens, UniProt P48547)
T1 construct: expressed in transfected cells
T1 sequence (P48547 1-585 isoform P48547-2): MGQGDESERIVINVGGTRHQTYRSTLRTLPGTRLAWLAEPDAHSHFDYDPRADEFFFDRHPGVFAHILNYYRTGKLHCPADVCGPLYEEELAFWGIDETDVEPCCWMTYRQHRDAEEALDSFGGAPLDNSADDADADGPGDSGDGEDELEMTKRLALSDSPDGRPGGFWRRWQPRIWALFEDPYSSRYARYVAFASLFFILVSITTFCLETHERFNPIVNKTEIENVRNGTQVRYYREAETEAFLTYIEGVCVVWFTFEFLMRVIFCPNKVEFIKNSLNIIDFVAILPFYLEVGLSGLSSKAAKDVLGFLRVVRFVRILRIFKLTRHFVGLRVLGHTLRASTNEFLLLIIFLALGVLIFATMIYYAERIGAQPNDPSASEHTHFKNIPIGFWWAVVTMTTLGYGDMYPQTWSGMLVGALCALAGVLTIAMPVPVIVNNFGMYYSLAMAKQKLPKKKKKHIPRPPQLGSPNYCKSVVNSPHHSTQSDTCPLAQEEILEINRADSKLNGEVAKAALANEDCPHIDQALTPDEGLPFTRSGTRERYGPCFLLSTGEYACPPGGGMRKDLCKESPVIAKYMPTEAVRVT
Assay: Manual patch clamp electrophysiology, HEK-293 cells stably expressing human Kv3.1b
Assay type: cell-based
Details: for hKv3.1 ECΔ30% increase: concentration increasing current by 30% at the −10 mV step; for hKv3.1 ECΔ5 mV: concentration that shifts activation threshold by 5 mV
Method: Manual Patch Clamp Electrophysiological Evaluation, hKv3.1, hKv3.2, hKv3.3, hKv3.4:
HEK-293 cells stably expressing human Kv3.1b, Kv3.2, Kv3.3 or Kv3.4 were used for the experiments.
Kv3.1b, Kv3.2: Cells were cultured in MEM medium supplemented with 10% Fetal Bovine Serum, 1% Penicillin/Streptomycin, 2 mM glutamine and 0.6 mg/mL geneticin. Cells were grown to 80-90% confluency at 37° C. and 5% CO2 Kv3.3 or Kv3.4: Cells were cultured in DMEM medium supplemented with 10% Fetal Bovine Serum, 500 ug/mL Geneticidin and 1% Penicillin/Streptomycin. Cells were grown to 80-90% confluency at 37° C. and 5% CO2.
On the day of the experiment the cells were detached by TrypLE and resuspended in culture medium. Cells were centrifuged, media removed and the cells were resuspended in extracellular buffer containing (in mM): 130 Na-gluconate, 20 NaCl, 4 KCl, 1 MgCl2, 1.8 CaCl2, 10 HEPES and 5 glucose, pH 7.3 adjusted with NaOH, 310-320 mOsm
Patch-clamp recordings were performed using a manual patch-clamp system (Axon Multiclamp 700B, Digidata 1440, pCLAMP 10, Molecular Devices Corporation) with a fast perfusion system (RSC-160 Rapid solution Changer, BioLogic). Whole-cell recordings were carried out using an intracellular solution containing (in mM): 100 K-gluconate, 40 KCl, 10 HEPES, 1 EGTA, 1 MgCl2, pH 7.2 adjusted with KOH, 290-300 mOsm. Cell membrane potentials were held at −80 mV and current voltage-relationship was generated by voltage steps (50 ms duration) from −100 mV to +10 mV (in 10 mV increments) and then back to −100 mV for 50 ms, with inter-sweep interval of 3 s. The peak current amplitude of −10 mV was monitored until stable (<5% change) by using one step voltage protocol. One IV protocol was run as baseline, then compound perfusion was stared and peak current stability was monitored with single step protocol prior to the IV protocol. Single concentrations were measured per cell. Acceptable cells had seal resistance >500 MOhm, Access resistance <10 MOhm, and leak current <200 pA.
Data analysis was performed using Clampfit (V10.2) in combination with Microsoft Excel™ (Redmond, Wash., USA). Current voltage relationships were plotted from the peak current (baseline subtracted) at the individual voltage steps normalized to the vehicle addition at 10 mV. The voltage threshold for channel activation was defined as 5% activation of the peak current at 10 mV in presence of vehicle. […] The concentration needed to shift the threshold 5 mV was readout from this curve (ECΔ5 mV), as well as the ability to increase the peak current at the −10 mV step (EC30% increase). […]

Structure (SMILES): Cc1ccc(S(=O)(=O)n2ccc(C(=O)NCc3ncco3)c2)cc1 [Compound 86, 1-(4-methylbenzene-1-sulfonyl)-N-[(1,3-oxazol-2-yl)methyl]-1H-pyrrole-3-carboxamide]
- hKv3.1 ECΔ30% increase: 10.1 µM
- hKv3.1 ECΔ5 mV: 3.0 µM

Structure (SMILES): Cc1cnc(CNC(=O)c2ccn(S(=O)(=O)c3ccc(F)cc3C)c2)cn1 [Compound 90, 1-(4-fluoro-2-methylbenzene-1-sulfonyl)-N-[(5-methylpyrazin-2-yl)methyl]-1H-pyrrole-3-carboxamide]
- hKv3.1 ECΔ30% increase: 1.8 µM
- hKv3.1 ECΔ5 mV: 0.6 µM
